Measurements as given in publication PMC6879718, “Mycobacterial OtsA Structures Unveil Substrate Preference Mechanism and Allosteric Regulation by 2-Oxoglutarate and 2-Phosphoglycerate” (mBio, 2019).

Key:
[1] = target: T1, M. thermoresistibile OtsA V363F (Mycolicibacterium thermoresistibile, UniProt G7CGT2, V363F); experiment: OtsA kinetic parameters, continuous colorimetric coupled assay (V363F); assay type: biochemical, Mycobacterium thermoresistibile
T1 sequence (G7CGT2 1-486 V363F): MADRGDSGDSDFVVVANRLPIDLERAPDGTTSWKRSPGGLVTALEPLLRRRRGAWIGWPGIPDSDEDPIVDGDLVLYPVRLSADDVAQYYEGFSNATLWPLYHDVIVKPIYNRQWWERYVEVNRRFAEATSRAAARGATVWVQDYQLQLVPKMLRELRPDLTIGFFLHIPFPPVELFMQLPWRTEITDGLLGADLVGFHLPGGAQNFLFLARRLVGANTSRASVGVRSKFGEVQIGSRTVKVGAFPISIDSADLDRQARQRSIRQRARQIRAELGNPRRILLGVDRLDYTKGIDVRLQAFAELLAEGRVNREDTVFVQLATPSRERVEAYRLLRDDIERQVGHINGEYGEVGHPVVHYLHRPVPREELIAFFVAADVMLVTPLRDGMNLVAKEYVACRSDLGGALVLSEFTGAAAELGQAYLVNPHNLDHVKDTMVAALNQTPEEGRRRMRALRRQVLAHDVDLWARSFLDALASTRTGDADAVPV

[2] = target: T2, M. thermoresistibile OtsA L319I, V363F, E367L (Mycolicibacterium thermoresistibile, UniProt G7CGT2, E367L/L319I/V363F); experiment: OtsA kinetic parameters, continuous colorimetric coupled assay (L319I, V363F, E367L); assay type: biochemical, Mycobacterium thermoresistibile; details: triple mutant
T2 sequence (G7CGT2 1-486 L319I/V363F/E367L): T1 sequence (G7CGT2 1-486 V363F)

MtrOtsA [3] = target: T3, MtrOtsA (Mycolicibacterium thermoresistibile, UniProt G7CGT2); experiment: biochemical
T3 sequence (G7CGT2 1-486): T1 sequence (G7CGT2 1-486 V363F)

[4] = target: T4, M. thermoresistibile OtsA L319I (Mycolicibacterium thermoresistibile, UniProt G7CGT2, L319I); experiment: OtsA kinetic parameters, continuous colorimetric coupled assay (L319I); assay type: biochemical, Mycobacterium thermoresistibile
T4 sequence (G7CGT2 1-486 L319I): T1 sequence (G7CGT2 1-486 V363F)

[5] = target: M. thermoresistibile OtsA wild type (Mycolicibacterium thermoresistibile, UniProt G7CGT2); experiment: OtsA kinetic parameters, continuous colorimetric coupled assay (wild type); assay type: biochemical, Mycobacterium thermoresistibile
MtrOtsA [6] = target: T3, MtrOtsA; details: ITC, 25°C, 60 μM OtsA, 1 mM ligand
[7] = target: Mycobacterium thermoresistibile OtsA (Mycobacterium thermoresistibile (DSM 44167)); experiment: not stated; in solution; the paper does not tell by which method the tetramer was seen
[8] = target: Mycobacterium thermoresistibile OtsA (Mycobacterium thermoresistibile (DSM 44167)); experiment: crystal structure; apo form in space group I4(1)22, ADP-G6P ternary complex in P6(2)22, one protomer per asymmetric unit each; sitting-drop vapor diffusion at 18°C

Nc1ncnc2c1ncn2[C@@H]1O[C@H](COP(=O)(O)OP(=O)(O)O[C@H]2O[C@H](CO)[C@@H](O)[C@H](O)[C@H]2O)[C@@H](O)[C@H]1O [ADP-glucose]
fold increase in Km^app over the wild type [1]: ~2.5 fold | fold increase in Km^app compared to the wild type [2]: ~5 fold | Kd (MtrOtsA [3]): 27.2 ± 2.66 µM | fold increase in Km^app compared to the wild type [4]: ~3 fold

Nc1nc2c(ncn2[C@@H]2O[C@H](COP(=O)(O)OP(=O)(O)O[C@H]3O[C@H](CO)[C@@H](O)[C@H](O)[C@H]3O)[C@@H](O)[C@H]2O)c(=O)[nH]1 [GDP-glucose]
turnover, fold lower than ADP-glucose [5]: 5 fold | fold increase in Km^app over the wild type [1]: ~2.5 fold | heat of binding (MtrOtsA [6]): no observable heat of binding

O=C[C@H](O)[C@@H](O)[C@H](O)[C@H](O)COP(=O)(O)O [Glucose-6-phosphate, glucose-6-phosphate]
use as acceptor substrate ([5]; ADP-glucose as the donor substrate): the only acceptor

Mycobacterium thermoresistibile OtsA (enzyme)
stoichiometry N [7]: 4 | stoichiometry N [8]: 4
